Experimental data from article PMC10728248, “A Novel Near-Infrared Fluorescence Probe THK-565 Enables In Vivo Detection of Amyloid Deposits in Alzheimer’s Disease Mouse Model” (Molecular Imaging and Biology, 2023).

Biological target: T1, amyloid-β (Aβ1-40) fibrils (Homo sapiens, UniProt P05067)
T1 construct: gene APP; Aβ1-40, aggregated (fibrils)
Assay: fluorescence saturation binding (ΔF at […] nm, fibrils vs soluble Aβ)

T1 sequence (P05067 672-711): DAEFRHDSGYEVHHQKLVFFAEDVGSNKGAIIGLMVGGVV

- Kd: 156 nM
SMILES: Cc1ccc2c(c1)C(C)(C)C1(/C=C/C=C/c3ccc(N(C)C)cc3)NC(=O)CCN21 (stereo not shown) [THK-565, 10a-[(1E,3E)-4-(4-dimethylamino-phenyl)-buta-1,3-dienyl]-8,10,10-trimethyl-3,4,10,10a-tetrahydro-1H-pyrimido[1,2-a]indol-2-one]
